Entries after “also recorded” stand apart in the source; their conditions may differ.
Legend:
Assay type in all cases: in vivo, mouse
[1] = tested on: c-peptide; experiment: c-peptide/glucagon immunofluorescence of pancreatic islets, HF-fed mice; details: HF diet mice 4 months; vs HF diet
Method: Indirect Immunofluorescence. Immunofluorescence assays on cells and tissue sections were performed as previously described (29). Briefly, differentiated samples were fixed using 4% (w/v) paraformaldehyde and membrane permeabilization (for cells only) was done with 0.3% (w/v) Triton-X 100 (Sigma). Unspecific sites were blocked using 2% BSA for 30 min prior to incubation with rabbit polyclonal anti-PDX1 (Millipore, 06-1379, 1:1000), rabbit anti-C-Peptide (Cell Signaling, 4593, 1:500, Danvers, Mass.) and mouse monoclonal anti-Glucagon (Abcam, ab10988, 1:200) primary antibodies. Phalloidin-TRITC (Millipore, FAK100, 1:1000, Billerica, Mass.) was used to stain the actin stress fiber network (F-actin). Nuclei were stained using DAPI contained in Vectashield® mounting medium for fluorescence (Vector labs, Burlingame, Calif.). Quantitation of C-peptide positive stained cells and islet surface area was performed using NIS-Elements Advanced Research software (Nikon).
Mice, diet, and drug treatment. WT male C57/BL6 male mice were maintained on either a standard laboratory chow-fed diet (CFD) with 13% kcal fat, (diet #5053, Lab Diet, Inc, St. Louis, Mo.) or a high fat, western style diet (HFD) with 60% kcals from fat, (diet #58126, Lab Diet, Inc., St. Louis, Mo.) for 4 months. […]

[2] = tested on: PPARα, CPT1-α, CPT2, ACAT1, FASN, SREBP1, ACC1, HSL, PLIN, ADIPOQ mRNA; experiment: Q-PCR of lipid metabolism genes in liver, pancreas and adipose tissue; details: Wt and Ob/Ob mice, pancreas, adipose
Method: RNA Isolation and cDNA Synthesis-Total RNA was isolated from whole pancreas and small intestine homogenates using RNeasy mini kits (Qiagen, Valencia, Calif.) and quantified using a Nano Drop 2000 spectrophotometer (Thermo Scientific, Wilmington, Del.). Total RNA (2 μg) was used to synthesize cDNA with random primers using a qScript cDNA synthesis kit (Quanta Biosciences, Gaithersburg, Md.).
Quantitative RT-PCR (Q-PCR)-Q-PCR was performed using SYBR Green PCR master mix on a Bio-Rad MyiQ2 Real Time PCR iCycler (Bio-Rad, Inc. Hercules, Calif.). Gene specific primers (Table 5) were used to amplify mRNA target genes, which were normalized to Hprt internal control genes. cDNA from 3-5 mice per experimental group was analyzed for relative mRNA fold changes, calculated using the Pfaffl method (Pfaffl M W, A new mathematical model for relative quantification in real-time RT-PCR, Nucleic Acids Res. 2001 May 1; 29(9):e45). Relative gene expression values are reported as mean±standard error of the mean (S.E.M) and P-values calculated using one-way analysis of variance followed by Bonferroni multiple comparison test post-hoc analysis.

[3] = tested on: HF-fed C57/BL6 mice; experiment: HF-fed mice treated 3 months: body weight, GTT, fasting glucose (Example 22)
Method: METHODS. Preparation of RARβ agonists solution. AC261066 and AC55649 were dissolved in dimethyl sulfoxide (DMSO) at the concentration of 3.0 mg/ml and diluted in the drinking water for mice to the final concentration of 3.0-mg/100 ml. Mice, diet, and drug treatments. Wt male C57/BL6 male mice were maintained on either a standard laboratory chow-fed diet (Con) with 13% kcal fat, (diet #5053, Lab Diet, Inc, St. Louis, Mo., [n=4]) or a high fat, western style diet (HFD) with 45% kcals from fat, (diet #58126, Lab Diet, Inc., St. Louis, Mo.) for 3 months. Two weeks after the start of the HFD treatment, the HFD group was further split into 3 groups for 3 months: i) HFD and drinking water containing 1% DMSO (n=5); ii) high fat diet (HFD) and drinking water containing 3.0 mg/100 ml AC261066, a specific RARβ agonist (n=5) or iii) HFD and drinking water containing 3.0 mg/100 ml AC55649, a specific RARβ agonist (n=4). After 3 months the mice were tested for glucose intolerance with an intra-peritoneal glucose tolerance test (GTT). Mice were then sacrificed by cervical dislocation. Blood and various tissue samples were harvested.
Glucose Tolerance Test (GTT). Glucose tolerance was performed using an intraperitoneal glucose tolerance test (GTT). Mice were fasted overnight (˜16 hrs) followed by intra-peritoneal injections (n=3-5 per group) of 50% glucose in PBS at 2.0 g of glucose/kg of body weight. Tail vein blood was collected at 15, 30, 45, 60, and 120 minutes post-injection for glucose measurements using a FreeStyle Lite Blood Glucose Monitoring System (Abbott Diabetes Care, Inc. Alameda, Calif.). Random and fasting blood glucose measurements were taken from tail veins of 4 mice per group at 2-3 random time points daily or just prior to GTT. Means are expressed as ±standard error of the mean (S.E.M) and P-values were calculated using one-way analysis of variance followed by Bonferroni post-hoc analysis. Grubbs' maximum normal residual test was used for detection of one or more outliers.

Compound: CCCCOCCOc1nc(-c2ccc(C(=O)O)c(F)c2)sc1C [AC261066]
- c-peptide level in pancreatic islets [1]: slightly reduces; also recorded: slightly decreased
- tissue expression of genes involved in lipogenesis and mitochondrial oxidation of lipids [2]: alters
- glucose tolerance and area under the curve glucose [3]: improved
- overnight fasting glucose levels [3]: significant reductions
- decrease in body weights compared to HF-fed mice ([3]; 3.0 mg/100 ml drinking water): ~10%
